Experimental data as given in a melting point compilation (Tetko et al.; mined from patent text by program, amines drawn as free bases though some values may be those of a salt).
Residues, ends and D or L forms follow the SMILES beside them. *: point of attachment. Cbz = O=C(OCc1ccccc1)*

| melting point [°C] | SMILES |
| --- | --- |
| 74 to 80 | C[C@@H]1CN(Cc2ccccc2)C[C@H]1N (relative stereo) |
| 160 to 161 | COc1cc(COc2ccc(N)nn2)c(Br)c(OC)c1OC |
| 245 to 248 | Cc1c(C)c(N2Cc3cc4c(cc3C2)OCO4)c(C)c2c1OC(C)(C)C2c1ccccc1 (stereo not given) |
| 139 to 140 | CCNC(=O)C1CCCN1C(=O)C(C)NC(=O)C(C)NC(=O)OCc1ccccc1 (stereo not drawn) (Cbz-Ala-Ala-Pro-NHEt; configuration not given here) |
| 138 to 140 | Cc1ccc(-c2cn(C)c(-c3ccc(C)s3)n2)s1 |
| 106 to 107 | CCNC(=O)C(C)NS(=O)(=O)c1ccc(C)cc1 (racemic) |
| 164 to 165 | COc1cc2sc(C=O)cc2c(Cl)c1OC |
| 85.5 | COc1c(-c2ccccc2)c2ccc(-c3ccc(C(C)C)cc3)cc2oc1=O |
| 133 to 135 | CC(C)(C)OC(=O)N1C[C@H](n2ccc(NC(=O)c3ccccc3)nc2=O)C[C@@H]1C(=O)OC(c1ccccc1)c1ccccc1 |
| 63 to 64 | CCCC(NS(N)(=O)=O)C(=O)OC (stereo not given) |
| 178 | COC(=N)Nc1nc(Cl)cc(Cl)n1 |
| 137 to 138 | O=S1(=O)N[C@@H](c2cccc(Cl)c2)c2ccccc21 |
| 250 to 252 | CC(C)n1nc(-c2sc(NC(=O)C3CC3)nc2-c2ccc(F)cc2)ccc1=O |
| 184 to 185 | N#CCOc1ccccc1S(N)(=O)=O |
| 115 to 117 | CCOC(=O)c1coc(-c2ccc(CCl)cc2)n1 |
| 158 to 161 | COc1ccc(N(CC(=O)O)c2ccccc2)c(C(=O)O)c1 |
| 105 to 106 | C/C(=C\CC1OC(=O)NC1=O)c1cccc(OCc2nc(-c3ccc(OC(F)(F)F)cc3)oc2C)c1 (stereo not given) |
| 110 | Cc1ccccc1-c1nc(-c2ccccc2C)nc(-c2ccccc2C)n1 |
| 133 to 134 | Cc1ccc(-c2cc(F)c(F)cc2-c2ccc(S(N)(=O)=O)cc2)cc1C |
| 121 | Cc1ccc(S(=O)(=O)N2CCNCCOCCOCCNCCN(S(=O)(=O)c3ccc(C)cc3)CC2)cc1 |
| 72.7 | Cc1ccc(-c2ccccc2)cc1Cn1c(C(F)F)nn(C)c1=O |
| 66 to 68 | CC(=O)c1ccc(Oc2ccc(Cl)cc2)cc1 |
| 123 to 125 | COC(=O)c1ccc(CN(OC)C(=O)C=C(O)C(=O)O)cc1 |
| 235 to 237 | CC(C)c1ccc(C(=O)NNC(=O)c2ccc(C(=O)O)cc2)cc1 |

| melting point [°C] | SMILES |
| --- | --- |
| 118 to 119 | CCOC(=O)[C@H]1O[C@@H]1C(=O)N[C@@H](CC(C)C)C(=O)c1ccccc1 |
| 78 to 80 | CCCCCCCCCCCCCCCCCCc1c(C(=O)OCC)[nH]c(C)c1C |
| 229 to 230 | COC(=O)NNC(=O)c1ccc(O)cc1 |
| 230 to 232 | Cc1cc(C)nc(-n2ncnc2N)n1 |
| 101 | COc1ccc2c(c1)C(C(=O)O)CC2 (stereo not given) |
| 131 to 133 | CC(=O)Oc1ccc2c(c1)CC1(C)Cc3ccccc3C1=CC2C (stereo not given) |
| 161 | Cc1c(N2CCC(N(C)Cc3ccccc3)C2)c(F)cc2c(=O)c(C(=O)O)cn(C3CC3)c12 (stereo not given) |
| 69 to 73 | COc1cccc(C(=C/C=C/C(=O)NCCCCc2cccnc2)c2cccc(OC)c2)c1 |
| 107 | COc1nc(C)c2c(c1C=O)CCCC2O (stereo not given) |
| 145 | CC#CCOc1ccc(C(=O)N(C)C[C@@H](C(=O)NO)N2CCN(S(C)(=O)=O)CC2)cc1 |
| 91.9 to 93.6 | COc1cccc(CNc2ncnc3c2sc2nc(N(C)C)c4c(c23)C(C)(C)CC4)c1OC |
| 160 to 161 | CSC(Oc1cc(Cl)c2ncc(Br)cc2c1)C(=O)NC(C)(C)C (stereo not given) |
| 204 to 206 | CS(=O)c1csc(C(=O)C2C(=O)N(C(N)=O)c3ccc(Cl)cc32)c1 (stereo not given) |
| 90 to 95 | CCOC(=O)C1Cc2c(n(C)c3ccc(OCc4ccccc4)cc23)C1 (stereo not given) |
| 183 | CC(=NNC(=O)c1cccc(C(F)(F)F)c1)c1cccnc1 |
| 157 to 158 | FC(F)(Br)C(F)(F)Oc1ccc(C2(c3ccc(OC(F)(F)C(F)(F)Br)cc3)c3ccccc3-c3ccccc32)cc1 |
| 197 to 200 | COC(=O)c1cn(-c2ccc(O)cc2C)c(C2CCC(Br)C(Br)C2)cc1=O (stereo not given) |
| 105 to 107 | CCCCC[C@@H](O)C=C[C@@H]1[C@@H](CC(=O)O)[C@@H](O)C[C@H]1O |
| 145 to 148 | C[C@@H]([C@@H](O)c1ccc(OCc2ccccc2)cc1)N1C2CCC1CC(=Cc1ccccc1)C2 (relative stereo) |
| 151 to 153 | CC(=O)OC1C(Oc2cc(C)cc(O)c2C(=O)CCc2ccc3occc3c2)OC(CO)C(O)C1OC(C)=O (stereo not given) |
| 214 to 216 | O=C(O)c1cn(C2CC2)c2cc(F)c(F)c(NCc3ccccc3)c2c1=O |
| 141 to 142 | CN1CCC(=C2c3ccccc3CCc3sc(Br)cc32)CC1 |
| 97 to 98 | COC(=O)c1c(Cl)c(-c2cccc(C(F)(F)F)c2)nn1C |
| 211 | CC(=O)Nc1nc2c(Oc3cc(-c4ccc(C(F)(F)F)cc4)nc(N4CCN(C(=O)OC(C)(C)C)CC4)n3)cccc2s1 |

| melting point [°C] | SMILES |
| --- | --- |
| 220 to 222 | Cc1nc(N)c2nc(C)n(CCNC(=O)C(C)C)c2c1C |
| 222 | COC1(N)C=CC(C(=O)c2cnc(Nc3ccccc3)s2)=CC1 (stereo not given) |
| 124 to 130 | CC(C)(C)C(=O)N[C@@H](Cc1ccccc1)C(=O)N[C@@H](Cc1ccccc1)C(=O)NC(CO)Cc1c[nH]cn1 (stereo not given in full) |
| 113 to 115 | CCCCCN1C(=O)C2CC2(c2ccc(N)cc2)C1=O (stereo not given) |
| 288 to 289 | CNC(=O)c1ccccc1Nc1nc(Nc2ccc3c(c2)OCCN(C)C3=O)ncc1Cl |
| 83 to 84 | O=C(O)CCCC(=O)NCc1ccccc1 |
| 78 to 82 | CCOCc1cc(COc2cc(C)nc(C)c2OC)ccc1-c1ccccc1S(=O)(=O)Nc1noc(C)c1C |
| 240 to 241 | COC(=O)C1=C(C)Nc2[nH]nc(-c3ccccc3)c2C1c1cccc([N+](=O)[O-])c1 (stereo not given) |
| 129 to 130 | CCOc1cc(OCCCc2cn(-c3ccc(C(F)(F)F)cn3)nc2C)ccc1CCC(=O)O |
| 171 to 173 | CCOC(=O)Nc1cnc(NCCCOc2cccc(CN3CCCCC3)c2)[nH]c1=O |
| 55 to 57 | C[Si](C)(C)CCOC1OC(COC(=O)c2ccccc2)C(O)C(O)C1N=[N+]=[N-] (stereo not given) |
| 103 to 107 | CN(C)CCc1c[nH]c2cc(N(S(=O)(=O)c3cc(Cl)cc(Cl)c3)S(=O)(=O)c3cc(Cl)cc(Cl)c3)ccc12 |
| 165 to 166 | CC(=O)N1C(C)(C)CC(OC(=O)C(Cc2cc(C(C)(C)C)c(O)c(C(C)(C)C)c2)(Cc2cc(C(C)(C)C)c(O)c(C(C)(C)C)c2)C(C)=O)CC1(C)C |
| 164 to 165 | O=C(C1CC1)N1CC2CC2(c2ccccc2)C1 (stereo not given) |
| > 150 | CNC(=O)Nc1cc(C(C)(C)C)c2c(c1)C(C)(C)CS2 |
| 212 to 214 | COc1ccc(NC(C)=C2C(=O)OC(=O)C(C(C)=O)=C2O)cc1 |
| 147 to 149 | CN(CC(=O)O)C(=O)c1c(N)cccc1I |
| 206 to 209 | COc1ccc(/C=C/C(=O)Nc2ccccc2C(=O)OCC(=O)O)cc1OC |
| 115 to 118 | c1ccc(CN2CCN(CCCCc3c[nH]c4ccc(-n5cnnc5)cc34)CC2)nc1 |
| 70 to 71 | C/C(=C\c1ccc(O)cc1)c1ccc2c(c1)OCC(C)(C)CO2 |
| 109 to 111 | Cc1cccc(/C=C/c2nc(COc3ccc(CCCCn4ccnc4CCO)cc3)co2)c1 |
| 58 to 59 | CC(C)(C)c1ccc2c(C#N)ccc(C#N)c2c1 |
| 211 to 213 | CCOc1nc(N)n2nc(-c3ccco3)nc2n1 |
| 188 to 190 | COc1cc2ncnc(NC3=CC(=O)C4(C(C)C)OC4C3=O)c2cc1OC (stereo not given) |

| melting point [°C] | SMILES |
| --- | --- |
| 80 to 82 | COC(=O)C(=O)c1ccc(OC/C=C/c2ccccc2)cc1 |
| 114 to 115 | CC(CC(=O)NC(=O)OC(C)(C)C)Nc1ccc(Cl)cc1 (stereo not given) |
| 191 to 192 | O=C(N[C@H](Cc1ccc(C(F)(F)F)cc1)[C@@H](O)c1ccc(Oc2ccccc2)cc1)c1cccc2c1C=CCCC2 (racemic) |
| 206 to 207 | O=c1nc(N2CCC(O)CC2)sc2ncccc12 |
| 39 to 40 | CCCCCCCCCCCCCCOc1ccc(C(=O)OCC)o1 |
| 178 to 180 | COc1ccc(C(CC(=O)O)N2C(=O)c3cccc([N+](=O)[O-])c3C2=O)cc1 (stereo not given) |
| 172 | CC#CCOc1ccc(S(=O)(=O)C2(C(=O)O)CCN(Cc3ccc(OCCN4CCCCC4)cc3)CC2)cc1 |
| 124 | CC#CCOc1ccc(S(=O)(=O)C2(C(=O)NO)CCCN(Cc3ccc(Cl)cc3)C2)cc1 (stereo not given) |
| 230 to 231 | CNc1cc(N2CCN(C(=O)N3CCN(S(=O)(=O)c4ccc(C(F)(F)F)cc4)CC3)CC2)ncn1 |
| 253 to 255 | O=C(NCc1ccc(Cl)cc1)c1cnc2c(F)cc(C#CCCO)cc2c1O |
| 265 to 268 | CCS(=O)(=O)C(=CNc1ccc(NC=C(S(=O)(=O)CC)S(=O)(=O)CC)cc1)S(=O)(=O)CC |
| 201 to 203 | CCOC(=O)c1ncc2[nH]c3ccc(C(C)(C)C)cc3c2c1C |
| 262 to 263 | O=C(c1ccccc1C(c1ccc(O)cc1)c1ccc(O)cc1)N(c1ccccc1)c1ccccc1 |
| 100 | CCCCCCCCCCCC(=O)N1CCc2nc3ccccc3c(C)c2CC1 |
| 92 | CS(=O)c1cc(-c2ccc(Oc3ccccc3)cc2)nn1C(N)=O (stereo not given) |
| 102 | CCOCCn1c(CN2CCN(CC(O)COc3ccccc3)CC2)nc2cccnc21 (stereo not given) |
| 90 to 93 | O=C(Nc1ccccc1)c1cccc(-c2ccc(OCC(O)CCc3cccnc3)cc2)c1 (stereo not given) |
| 115 to 121 | O=C=Nc1cccc(-c2nc3ccccc3c(=O)o2)c1 |
| > 250 | COc1ncc(Oc2ccc(Cl)cc2)c2cc(C(N)=O)sc12 |
| 105 to 107 | COc1ccc(C=CC(=O)c2c(OC)cc(OC)cc2OC(C)=O)cc1 |
| 172 to 174 | CC(Oc1ccccc1)(c1ccc(O)cc1)c1ccc(O)cc1 |
| 172 | CC12CC3CC(C1)CC(CNC(=O)n1cc(F)c(=O)[nH]c1=O)(C3)C2 |

| SMILES | melting point [°C] |
| --- | --- |
| CN1C(=O)C2(CCN(CCCC(O)c3ccc(F)cc3)CC2)c2ccccc21 (stereo not given) | 126 to 128 |
